These compounds were tested on T47D cells (assay: Cellular growth inhibition assay for T47D cells, CellTiter-Glo). Conditions: 72 hours treatment, CellTiter-Glo 2.0 cell viability.
Assay type: cell-based, human
Method: T47D cells were purchased from American Type Cell Culture (ATCC Cat #HTB-133) and then seeded on poly-D-lysine coated, black clear-bottom 384-well plates at 3000/well in 25 μL Dulbecco's Modified Eagle Medium (DMEM) supplemented with 10% w/w Fetal bovine serum (FBS), 0.2 units/mL recombinant human insulin (Gibco Cat #12585014), and 1% w/w Pen-Strep. Pen-Strep is a commercially available mixture of penicillin G and streptomycin, which is used in mammalian cell culture media to prevent bacterial contamination. Dulbecco's Modified Eagle Medium (DMEM) supplemented with 10% w/w fetal bovine serum (FBS), 0.2 units/mL recombinant human insulin, and 1% w/w Pen-Strep is herein referred to as Treatment Medium. Following seeding of cells in the plates, the plates were spun at 300×g for 30 seconds, then equilibrated to room temperature for 30 minutes, and then deposited in a humidified tissue culture incubator maintained at 37° C. with 5% CO2.
At 24 hours after seeding of the cells, dilutions of test compound were prepared in DMSO and dissolved in Treatment Medium, to achieve a final DMSO concentration of 0.5% w/w, thereby providing the Test Compound Solution. A 25 μL aliquot of the Test Compound Solution was added to cells in the well plates. An equal volume of a solution containing DMSO and Treatment Medium was used as a negative control. Following treatment of cells with Test Compound Solution or said equal volume of a solution containing DMSO and Treatment Medium, the plates were spun at 300×g for 30 seconds, and then left in an incubator for 72 hours.
At the end of the treatment duration, cell viability was quantified with CellTiter-Glo 2.0 reagent (Promega Cat #G9243). For this purpose, plates were equilibrated to room temperature for 30 minutes, and then 25 μL of CellTiter-Glo 2.0 reagent was added to cells in the plate wells. Plates were then agitated on a shaker for two minutes at 500 rpm and subsequently incubated at room temperature for 10 minutes. Following incubation, the plates were spun at 3000×g for 30 seconds, then sealed with an optical adhesive cover, and luminescence readings were measured with an EnVision Plate Reader (Perkin Elmer).
Data was normalized using zero luminescence for baseline. A four-parameter non-linear regression curve fit was applied to dose-response data in GraphPad Prism data analysis software to determine the half-maximal growth inhibitory concentration (GI50) for each test compound.

| GI50 | Compound |
| --- | --- |
| > 3000 nM | Cc1sc2c(c1C)C(c1ccc(C#CC3CC4(CCCN(c5ncc(C(=O)N[C@H]6C(C)(C)[C@H](Oc7ccc(C#N)c(Cl)c7)C6(C)C)cn5)C4)C3)cc1)=NC1(CC1)c1nnc(C)n1-2 [Compound I-487] |
| < 500 nM | Cc1sc2c(c1C)C(c1ccc(CC3CC(C4CCCN(c5ncc(C(=O)N[C@H]6C(C)(C)[C@H](Oc7ccc(C#N)c(Cl)c7)C6(C)C)cn5)C4)C3)cc1)=N[C@@H](C)c1nnc(C)n1-2 (some centres unmarked) [Compound I-489] |
| > 3000 nM | Cc1sc2c(c1C)C(c1ccc([C@H]3C[C@@H]3CC3CCCN(c4ncc(C(=O)N[C@H]5C(C)(C)[C@H](Oc6ccc(C#N)c(Cl)c6)C5(C)C)cn4)C3)cc1)=NC(Cc1ncco1)c1nnc(C)n1-2 (some centres unmarked) [Compound I-491] |
| > 3000 nM | Cc1sc2c(c1C)C(c1ccc([C@H]3C[C@@H]3CC3CCCN(c4ncc(C(=O)N[C@H]5C(C)(C)[C@H](Oc6ccc(C#N)c(Cl)c6)C5(C)C)cn4)C3)cc1)=N[C@@H](Cc1ncco1)c1nnc(C)n1-2 (some centres unmarked) [Compound I-492] |
| 500 to 1500 nM | Cc1sc2c(c1C)C(c1ccc([C@H]3C[C@@H]3CC3CCCN(c4ncc(C(=O)N[C@H]5C(C)(C)[C@H](Oc6ccc(C#N)c(Cl)c6)C5(C)C)cn4)C3)cc1)=N[C@@H](Cc1ncco1)c1nnc(C)n1-2 (some centres unmarked) [Compound I-493] |
| < 500 nM | Cc1sc2c(c1C)C(c1ccc([C@H]3C[C@@H]3CC3CCCN(c4ncc(C(=O)N[C@H]5C(C)(C)[C@H](Oc6ccc(C#N)c(Cl)c6)C5(C)C)cn4)C3)cc1)=NC(Cc1ncco1)c1nnc(C)n1-2 (some centres unmarked) [Compound I-494] |
| < 500 nM | Cc1sc2c(c1C)C(c1ccc([C@H]3C[C@@H]3CC3CCCN(c4ncc(C(=O)N[C@H]5C(C)(C)[C@H](Oc6ccc(C#N)c(Cl)c6)C5(C)C)cn4)C3)cc1)=NC(Cc1ncco1)c1nnc(C)n1-2 (some centres unmarked) [Compound I-495] |
| < 500 nM | Cc1sc2c(c1C)C(c1ccc([C@H]3C[C@@H]3CC3CCCN(c4ncc(C(=O)N[C@H]5C(C)(C)[C@H](Oc6ccc(C#N)c(Cl)c6)C5(C)C)cn4)C3)cc1)=NC(Cc1ncco1)c1nnc(C)n1-2 (some centres unmarked) [Compound I-496] |
| > 3000 nM | Cc1sc2c(c1C)C(c1ccc(OCC3CC4(CCCN(c5ncc(C(=O)N[C@H]6C(C)(C)[C@H](Oc7ccc(C#N)c(Cl)c7)C6(C)C)cn5)C4)C3)cc1)=NC1(CC1)c1nnc(C)n1-2 [Compound I-500] |
| > 3000 nM | Cc1sc2c(c1C)C(c1ccc(C#CC3CCC(Cc4ncc(C(=O)N[C@H]5C(C)(C)[C@H](Oc6ccc(C#N)c(Cl)c6)C5(C)C)cn4)CC3)cc1)=N[C@@H](Cc1ncco1)c1nnc(C)n1-2 (some centres unmarked) [Compound I-505] |
| 500 to 1500 nM | Cc1sc2c(c1C)C(c1ccc(C#CC3CCC(Cc4ncc(C(=O)N[C@H]5C(C)(C)[C@H](Oc6ccc(C#N)c(Cl)c6)C5(C)C)cn4)CC3)cc1)=N[C@@H](Cc1ncco1)c1nnc(C)n1-2 (some centres unmarked) [Compound I-506] |
| 500 to 1500 nM | Cc1sc2c(c1C)C(c1ccc(C3CC(CC4CCN(c5ncc(C(=O)N[C@H]6C(C)(C)[C@H](Oc7ccc(C#N)c(Cl)c7)C6(C)C)cn5)CC4)C3)cc1)=NC(C)c1nnc(C)n1-2 (some centres unmarked) [Compound I-508] |
| < 500 nM | Cc1sc2c(c1C)C(c1ccc(C3CC(CC4CCN(c5ncc(C(=O)N[C@H]6C(C)(C)[C@H](Oc7ccc(C#N)c(Cl)c7)C6(C)C)cn5)CC4)C3)cc1)=NC(C)c1nnc(C)n1-2 (some centres unmarked) [Compound I-509] |
| > 3000 nM | Cc1sc2c(c1C)C(c1ccc(C3CC(CC4CCN(c5ncc(C(=O)N[C@H]6C(C)(C)[C@H](Oc7ccc(C#N)c(Cl)c7)C6(C)C)cn5)CC4)C3)cc1)=NC(C)c1nnc(C)n1-2 (some centres unmarked) [Compound I-510] |
| > 3000 nM | Cc1sc2c(c1C)C(c1ccc(C3CC(CC4CCN(c5ncc(C(=O)N[C@H]6C(C)(C)[C@H](Oc7ccc(C#N)c(Cl)c7)C6(C)C)cn5)CC4)C3)cc1)=NC(C)c1nnc(C)n1-2 (some centres unmarked) [Compound I-511] |
| < 500 nM | Cc1sc2c(c1C)C(c1ccc(CC3CC(CC4CCN(c5ncc(C(=O)N[C@H]6C(C)(C)[C@H](Oc7ccc(C#N)c(Cl)c7)C6(C)C)cn5)CC4)C3)cc1)=N[C@@H](C)c1nnc(C)n1-2 (some centres unmarked) [Compound I-513] |
| > 3000 nM | Cc1sc2c(c1C)C(c1ccc([C@@H]3C[C@H]3C3CC4(CCN(c5cnc(C(=O)N[C@H]6C(C)(C)[C@H](Oc7ccc(C#N)c(Cl)c7)C6(C)C)cn5)CC4)C3)cc1)=N[C@@H](Cc1ncco1)c1nnc(C)n1-2 [Compound I-519] |

Same assay, conditions: Homo sapiens, T47D, 72 h, 72 hours treatment, CellTiter-Glo 2.0 cell viability

| GI50 | Compound |
| --- | --- |
| > 3000 nM | Cc1sc2c(c1C)C(c1ccc(C#CC3CC4(CCCN(c5ncc(C(=O)N[C@H]6C(C)(C)[C@H](Oc7ccc(C#N)c(Cl)c7)C6(C)C)cn5)C4)C3)cc1)=NC1(CC1)c1nnc(C)n1-2 [Compound I-486] |
| < 500 nM | Cc1sc2c(c1C)C(c1ccc(CC3CC(C4CCCN(c5ncc(C(=O)N[C@H]6C(C)(C)[C@H](Oc7ccc(C#N)c(Cl)c7)C6(C)C)cn5)C4)C3)cc1)=N[C@@H](C)c1nnc(C)n1-2 (some centres unmarked) [Compound I-488] |
| 500 to 1500 nM | Cc1sc2c(c1C)C(c1ccc(N3CC(C4CCN(c5cnc(C(=O)N[C@H]6C(C)(C)[C@H](Oc7ccc(C#N)c(Cl)c7)C6(C)C)cn5)CC4)C3)cc1)=N[C@@H](C)c1nnc(C)n1-2 [Compound I-490] |
| < 500 nM | Cc1sc2c(c1C)C(c1ccc(-n3cnc(C4CCN(c5ncc(C(=O)N[C@H]6C(C)(C)[C@H](Oc7ccc(C#N)c(Cl)c7)C6(C)C)cn5)CC4)n3)cc1)=N[C@@H](Cc1ncco1)c1nnc(C)n1-2 [Compound I-497] |
| 500 to 1500 nM | Cc1sc2c(c1C)C(c1ccc(N3CC4(CC(Cc5ncc(C(=O)N[C@H]6C(C)(C)[C@H](Oc7ccc(C#N)c(Cl)c7)C6(C)C)cn5)C4)C3)cc1)=N[C@@H](Cc1ncco1)c1nnc(C)n1-2 [Compound I-498] |
| > 3000 nM | Cc1sc2c(c1C)C(c1ccc(OCC3CC4(CCCN(c5ncc(C(=O)N[C@H]6C(C)(C)[C@H](Oc7ccc(C#N)c(Cl)c7)C6(C)C)cn5)C4)C3)cc1)=NC1(CC1)c1nnc(C)n1-2 [Compound I-499] |
| 500 to 1500 nM | Cc1sc2c(c1C)C(c1ccc(CCOC3CCN(c4ncc(C(=O)N[C@H]5C(C)(C)[C@H](Oc6ccc(C#N)c(Cl)c6)C5(C)C)cn4)CC3)cc1)=N[C@@H](C)c1nnc(C)n1-2 [Compound I-501] |
| < 500 nM | Cc1sc2c(c1C)C(c1ccc(N3CC(CC4CCN(c5ccc(C(=O)N[C@H]6C(C)(C)[C@H](Oc7ccc(C#N)c(Cl)c7)C6(C)C)cn5)CC4)C3)cc1)=N[C@@H](C)c1nnc(C)n1-2 [Compound I-502] |
| < 500 nM | Cc1sc2c(c1C)C(c1ccc(CC3CC4(CCN(c5ccc(C(=O)N[C@H]6C(C)(C)[C@H](Oc7ccc(C#N)c(Cl)c7)C6(C)C)cn5)CC4)C3)cc1)=NC1(CC1)c1nnc(C)n1-2 [Compound I-507] |
| < 500 nM | Cc1sc2c(c1C)C(c1ccc(CC3CC(CC4CCN(c5ncc(C(=O)N[C@H]6C(C)(C)[C@H](Oc7ccc(C#N)c(Cl)c7)C6(C)C)cn5)CC4)C3)cc1)=N[C@@H](C)c1nnc(C)n1-2 (some centres unmarked) [Compound I-512] |
| < 500 nM | Cc1sc2c(c1C)C(c1ccc(N3CC(CC4CN(c5ccc(C(=O)N[C@H]6C(C)(C)[C@H](Oc7ccc(C#N)c(Cl)c7)C6(C)C)nc5)C4)C3)cc1)=N[C@@H](C)c1nnc(C)n1-2 [Compound I-515] |
| 1500 to 3000 nM | Cc1sc2c(c1C)C(c1ccc(N3CC4(C3)CN(c3ncc(C(=O)N[C@H]5C(C)(C)[C@H](Oc6ccc(C#N)c(Cl)c6)C5(C)C)cn3)C4)cc1)=N[C@@H](C)c1nnc(C)n1-2 [Compound I-516] |
| 1500 to 3000 nM | Cc1sc2c(c1C)C(c1ccc(N3CC4(C3)CN(c3cnc(C(=O)N[C@H]5C(C)(C)[C@H](Oc6ccc(C#N)c(Cl)c6)C5(C)C)cn3)C4)cc1)=N[C@@H](C)c1nnc(C)n1-2 [Compound I-517] |
| > 3000 nM | Cc1sc2c(c1C)C(c1ccc([C@@H]3C[C@H]3C3CC4(CCN(c5cnc(C(=O)N[C@H]6C(C)(C)[C@H](Oc7ccc(C#N)c(Cl)c7)C6(C)C)cn5)CC4)C3)cc1)=N[C@@H](Cc1ncco1)c1nnc(C)n1-2 [Compound I-518] |
| < 500 nM | Cc1sc2c(c1C)C(c1ccc(CC3CC4(CCN(c5cnc(C(=O)N[C@H]6C(C)(C)[C@H](Oc7ccc(C#N)c(Cl)c7)C6(C)C)cn5)CC4)C3)cc1)=NC1(CC1)c1nnc(C)n1-2 [Compound I-520] |
| > 3000 nM | Cc1sc2c(c1C)C(c1ccc(OC3CC4(C3)CC3(CCN(c5cnc(C(=O)N[C@H]6C(C)(C)[C@H](Oc7ccc(C#N)c(Cl)c7)C6(C)C)cn5)CC3)C4)cc1)=NC1(CC1)c1nnc(C)n1-2 [Compound I-521] |
| 1500 to 3000 nM | Cc1sc2c(c1C)C(c1ccc(CC3CC4(CCN(c5ccc(C(=O)N[C@H]6C(C)(C)[C@H](Oc7ccc(C#N)c(Cl)c7)C6(C)C)nc5)CC4)C3)cc1)=NC1(CC1)c1nnc(C)n1-2 [Compound I-522] |
| 1500 to 3000 nM | Cc1sc2c(c1C)C(c1ccc(N3CC(CC4CCN(c5ccc(C(=O)N[C@H]6C(C)(C)[C@H](Oc7ccc(C#N)c(Cl)c7)C6(C)C)cn5)CC4)C3)cc1)=NC1(CC1)c1nnc(C)n1-2 [Compound I-523] |
